Test results taken from US20070078174A1 (priority 2005, published 2007).
Where a name gives a salt, the structure may show the parent alone.

What was measured:
[1] = cited from earlier work
clinical [2] = details: male, human, plasma
Experimental: The study was a randomized open label study with a four period comparative crossover study. […] The blood samples were taken at “0” hour (pre-dosing), 10 min, 20 min, 40 min, 1.0.
The study contained twelve (12) male subjects aged 18-55 years. […] However the available pharmacokinetic data from all twelve (12) subjects was included in the statistical analysis, as required by the study protocol.
The study administered the single dosages in four different forms.

clinical [3] = details: human, plasma, other: sublingual and oral
Experimental: Two groups were randomized and there was a one week washout period between administrations. The volunteers were in the fasted state when the drugs were administered. […] The oral formulation was administered with a glass of water. […] The samples were blinded from the analysts. […]

**Q.** Which absolute bioavailability ([1]; administered orally, extensive hepatic first pass metabolism) does the source give for `Clc1ccc2nsnc2c1NC1=NCCN1` [tizanidine, Tizanidine hydrochloride] here?
**A.** about 40%

**Q.** And the bioavailability ([1]; lowered by first-pass hepatic metabolism)?
**A.** 22-40%

**Q.** And the terminal half life ([1]; reported)?
**A.** 2.5 h

**Q.** What about the half-life (clinical [2]) of the same molecule?
**A.** 90 to 102 min

**Q.** What about the half-life (clinical [3]) of the same molecule?
**A.** 90 to 102 min
